Measurements: publication PMC8838982 (Bioorganic chemistry, 2021)
Where “and” joins values, the source holds several entries; their conditions need not be identical. Equal values may be shown once.

Legend:
Assay type in all cases: cell-based, influenza virus A/PR/8/34
[1] = system: PA-mutant K137L influenza virus polymerase
[2] = system: PA-mutant R124Q influenza virus polymerase
[3] = system: PA-mutant I120T influenza virus polymerase
[4] = system: PA-mutant R84L influenza virus polymerase
[5] = system: PA-mutant H41A influenza virus polymerase
[6] = system: PA-mutant V122T influenza virus polymerase
[7] = system: PA-mutant L42T influenza virus polymerase
[8] = system: PA-mutant G81T influenza virus polymerase
[9] = system: PA-mutant T20A influenza virus polymerase
[10] = system: PA-I38T mutant influenza virus polymerase

Compound | Fold increase in EC50 compared to wild-type [1] [fold] | Fold increase in EC50 compared to wild-type [2] [fold] | Fold increase in EC50 compared to wild-type [3] [fold] | Fold increase in EC50 compared to wild-type [4] | Fold increase in EC50 compared to wild-type [5] [fold] | Fold increase in EC50 compared to wild-type [6] [fold] | Fold increase in EC50 compared to wild-type [7] [fold] | Fold increase in EC50 compared to wild-type [8] [fold] | Fold increase in EC50 compared to wild-type [9] [fold] | Fold increase in EC50 compared to wild-type [10] [fold]
O=C1c2c(ccc(O)c2O)CN1Cc1ccc(O)cc1 [Compound 17, 2-(4-hydroxybenzyl)-6,7-dihydroxy-isoindolin-1-one] | 4.5 | 5.0 | 6.1 | 4 fold and 3.8 fold | 4.9 | 4.2 | 2.5 | 6.1 | – | –
NC(=O)c1ncn([C@@H]2O[C@H](CO)[C@@H](O)[C@H]2O)n1 [Ribavirin, ribavirin] | 1.3 | 1.1 | 1.0 | 1.1 fold | 0.8 | 1.2 | 0.9 | 0.9 | 1.0 | –
baloxavir acid [BXA] | – | 0.5 | 0.7 | 0.2 fold | 0.2 | 0.7 | 1.1 | 0.2 | 0.3 | 65
